Laboratory results as given in article PMC13252604, “First Generation Proteolysis Targeting Chimeras (PROTACs) for the Treatment of Progeria” (Advanced Science, 2026).

Biological target: T1, progerin (Mus musculus, UniProt P48678, DEL608-657)
T1 construct: endogenous in cells; host or cells: immortalized (SV40-LT) fibroblasts from Lmna G609G/G609G mice
T1 sequence (P48678 with tags, fused parts or gaps DEL608-657 limits assumed): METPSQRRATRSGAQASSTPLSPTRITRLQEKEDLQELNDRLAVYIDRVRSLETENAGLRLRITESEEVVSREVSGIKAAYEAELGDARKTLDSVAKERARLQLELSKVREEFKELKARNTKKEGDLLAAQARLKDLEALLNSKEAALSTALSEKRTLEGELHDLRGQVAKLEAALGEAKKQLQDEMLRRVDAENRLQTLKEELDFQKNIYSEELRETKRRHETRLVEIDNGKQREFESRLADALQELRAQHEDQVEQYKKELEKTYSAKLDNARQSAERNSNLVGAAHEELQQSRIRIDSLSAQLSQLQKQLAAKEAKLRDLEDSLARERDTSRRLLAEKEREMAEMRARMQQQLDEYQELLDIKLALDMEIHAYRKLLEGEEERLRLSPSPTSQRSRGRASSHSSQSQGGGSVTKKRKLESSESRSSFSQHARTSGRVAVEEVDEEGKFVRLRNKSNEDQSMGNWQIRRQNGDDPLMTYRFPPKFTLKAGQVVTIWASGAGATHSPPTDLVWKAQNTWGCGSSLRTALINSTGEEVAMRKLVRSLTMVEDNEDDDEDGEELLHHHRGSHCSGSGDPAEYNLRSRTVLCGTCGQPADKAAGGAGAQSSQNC
Experiment: Cellular thermal shift assay
Assay type: binding
Method: Vehicle .LM123L T-!=>(%C" V,!=> […]
50- !!!!!C#' -4TT8VLamin C -4T:T; (%$$-4-:?5T '()*+
!!!!!E#)*+,- ,V4:-β-Actin ,?4?V ,848; D(%
37- !!!!!*+,- 84;66L<-,V V4-;VL<-,? ?4T-?L<-,8 ,-)*+ […]
Supporting Figure S2. Ternary complex formation, progerin engagement and global selectivity of compound 2. […]
(C) Thermal denaturation curves of progerin in the presence of vehicle (black) or compound 2 at 10 µM (red, DTm=0.7±0.1 °C) or 25 µM (blue, […]
of compound 2 (IC50=7±1 µM). Curves are generated and fitted using sigmoidal dose-response non-linear regression curve fit in GraphPad Prism. Symbols and associated error bars (when not enclosed by the symbol) represent average±SD from two independent experiments carried out in duplicate. […]
(also on this page, place not known: >4000; Cpd2Cpd2 #)"$"C"#"*")*$*C ,V4:- 89:/1239 .0,;902<=:939:>=R?T !"#$#" (%$$ (%C" #)"$"C"#"*")*$*C -45665 -4TT8V ,V4:- 84;66L<-,V T-!=> ,?4?V V4-;VL<-,? -4-:?5T ,848; ?4T-?L<-,8 89:/1239 .0,;902<=:939:>=R?T FFFFFSB#T89: FFFFFSB#T89: FFFFFa+#-++GFB2FC-++CB$ FFFFFbFGF4D-+C FFFFF!4$FB2F!F4D-+G FFFFFiFB2FMF3DE4+G FFFFFiFkF3DE4+GFDLDEdl+C I9em:m rrr 9 :eosmX :e:snst o o Ise::::: I9e::::: :etpoooomX :esnnsmqmX :enst9mmqo :estm9XpoX Lamin β-Actin Progerin Relative progerin levelsin thesoluble fraction Relative levelsof denaturedprogerin [Cpd2, Relative progerin signal intensityvs IgG Cpd2 [Cpd2]=10 [Cpd2]=25 AbundanceRatio Veh Cpd2 -Log10 (p value)) […]
buffer containing 2.5% β-mercaptoethanol, and heated at 95 °C for 5 min prior to magnetic separation and loading of supernatants onto SDS -PAGE gels. Input lysates (~30 µg) were prepared in parallel as Western blot controls.
14. Cellular thermal shift assay.
Progeroid mouse fibroblasts (LmnaG609G/G609G) were seeded (2x10^6 cells) in 100 mm dishes 24 h before the experiment. Next day, cells were first washed with PBS and then incubated with the proteasome inhibitor (S)-MG132 (20 µM) for 2 h at 37 °C and 5%
CO2. Then, the cells were incubated with compound 2 at the corresponding concentration or with vehicle for 60 min at 37 °C and 5% CO2. Cells were then washed with PBS, detached by treatment with trypsin, and collected by centrifugation at 250g and 25 °C for 5 min, washed with PBS and resuspended in PBS in 0.2 mL microtubes. Then, homogenates or cells were transferred to PCR tubes and heat-shocked for 3 min at the appropriate temperature (37 to 61 °C) followed by rapid cooling to 25 °C using a SensoQuest LabCycler Thermocycler (Progen Scientific Ltd). Igepal CA-630 was then added to the samples (final concentration of 1 % v/v), and the samples were thoroughly mixed and denatured by three cycles of freezing/thawing (immersion in liquid nitrogen followed by fast thawing). […]

## CC1(C)Oc2cc3oc(=O)ccc3cc2C[C@@H]1OC(=O)CCCCCNc1cccc2c1C(=O)N(C1CCC(=O)NC1=O)C2=O (stereo partly shown) [compound 2]
CETSA, isothermal at 53 °C, Lmna^G609G/G609G fibroblasts, read-out: binding affinity by isothermal dose‐response fingerprint (IC50)
  IC50: 7 ± 1 µM
Lmna^G609G/G609G fibroblasts
  direct binding to progerin by cellular thermal shift assays: direct binding between compound 2 and progerin
Compound at 10 µM, read-out: DTm of progerin (thermal denaturation curve)
  ΔTm at 10 µM: 0.7 ± 0.1 °C
Compound at 25 µM, read-out: DTm of progerin (thermal denaturation curve)
  ΔTm at 25 µM: 2 ± 0.3 °C
